Reference: US9242963B2, “Organic compounds” (NOVARTIS AG, priority 2008, dated 2016)

What was measured:
[1] = target: T1, CYP11B2 (aldosterone synthase) (Homo sapiens, UniProt P19099); test: Aldosterone cell secretion in NCI-H295R cells; type: cell-based; conditions: 24 hours incubation with cell stimulant
T1 construct: the NCI-H295R cells have CYP11B2 (aldosterone synthase) and CYP11B1 (steroid 11-hydroxylase); host or cells: NCI-H295R
T1 sequence (P19099 25-503): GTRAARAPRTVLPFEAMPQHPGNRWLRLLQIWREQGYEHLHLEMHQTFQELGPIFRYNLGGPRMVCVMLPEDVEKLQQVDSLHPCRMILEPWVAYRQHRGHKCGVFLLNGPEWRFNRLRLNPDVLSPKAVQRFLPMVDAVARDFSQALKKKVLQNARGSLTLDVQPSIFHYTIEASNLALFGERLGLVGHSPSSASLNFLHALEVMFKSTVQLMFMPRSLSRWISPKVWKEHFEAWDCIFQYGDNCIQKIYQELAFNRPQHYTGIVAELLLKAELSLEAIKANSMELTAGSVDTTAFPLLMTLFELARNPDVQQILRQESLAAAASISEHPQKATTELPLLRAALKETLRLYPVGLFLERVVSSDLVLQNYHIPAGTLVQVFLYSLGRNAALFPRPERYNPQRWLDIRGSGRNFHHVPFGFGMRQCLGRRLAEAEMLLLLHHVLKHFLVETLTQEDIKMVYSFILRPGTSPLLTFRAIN
Excerpt: (§1) The activities of a compound according to the present invention can be assessed by the following in vitro method well-described in the art.
(§2) In particular, the inhibition of aldosterone and cortisol secretion in vitro can be determined by the following assay.
(§3) The cell line NCI-H295R was originally isolated from an adrenocortical carcinoma and has been characterized in the literature through the stimulable secretion of steroid hormones and the presence of the enzymes essential for steroidogenesis. […]
(§4) For in vitro measurement of aldosterone and cortisol activity, human adrenocortical carcinoma NCI-H295R cells are seeded in NBS 96-well plates at a density of 25,000 cells/well in 100 μL of a growth medium containing DMEM/F12 supplemented with 10% FCS, 2.5% Nu-serum, 1 μg ITS/ml, and 1× antibiotic/antimycotic. […] At the end of incubation, the excretion of aldosterone and cortisol into the culture medium can be detected and quantified by commercially available, specific monoclonal antibodies in radioimmunoassays in accordance with the manufacturer's instructions.
(§5) Measurement of aldosterone can also be performed using a 96-well plate format. […] The amount of aldosterone in each sample is calculated by comparing with a standard curve generated using known quantities of the hormone. […]

[2] = target: T2, CYP11B1 (steroid 11-hydroxylase) (Homo sapiens, UniProt P15538); test: Cortisol cell secretion in NCI-H295R cells; type: cell-based; conditions: 24 hours incubation with cell stimulant
T2 construct: the NCI-H295R cells have CYP11B2 (aldosterone synthase) and CYP11B1 (steroid 11-hydroxylase); host or cells: NCI-H295R
T2 sequence (P15538 25-503): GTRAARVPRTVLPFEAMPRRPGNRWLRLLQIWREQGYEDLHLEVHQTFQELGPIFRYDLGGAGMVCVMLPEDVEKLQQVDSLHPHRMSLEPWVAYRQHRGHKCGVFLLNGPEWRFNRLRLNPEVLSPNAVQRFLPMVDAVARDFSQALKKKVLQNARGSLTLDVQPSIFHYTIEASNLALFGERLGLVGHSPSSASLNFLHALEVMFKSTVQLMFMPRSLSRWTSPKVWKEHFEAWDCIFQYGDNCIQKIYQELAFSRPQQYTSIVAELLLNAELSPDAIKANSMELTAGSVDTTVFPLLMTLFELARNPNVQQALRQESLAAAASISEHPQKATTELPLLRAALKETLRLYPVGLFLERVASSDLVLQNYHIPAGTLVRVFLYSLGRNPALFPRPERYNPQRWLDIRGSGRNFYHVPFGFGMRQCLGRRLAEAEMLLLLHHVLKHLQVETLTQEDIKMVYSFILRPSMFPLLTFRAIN
Excerpt: as §1, §2, §3, §4, §5

Structure (SMILES)	IC50 [1] [nM]	IC50 [2] [nM]
CCS(=O)(=O)NC(C)c1cncc(-c2c(C#N)c3ccc(Cl)cc3n2C)c1 (racemic) [216 (other enantiomer), (R) and (S)-ethanesulfonic acid {1-[5-(6-chloro-3-cyano-1-methyl-1H-indol-2-yl)-pyridin-3-yl]-ethyl}-amide]	35	1230
CCS(=O)(=O)NC(C)c1cncc(-c2c(C#N)c3ccc(Cl)cc3n2C)c1 (racemic) [216 (one enantiomer), (R) and (S)-ethanesulfonic acid {1-[5-(6-chloro-3-cyano-1-methyl-1H-indol-2-yl)-pyridin-3-yl]-ethyl}-amide]	32	600
